Each molecule was assayed against T1, CD73 activity in MDA-MB-231-GFP cells (Homo sapiens, UniProt P21589) (assay: MDA-MB-231 Cell Based CD73 Activity Assay (DMEM)). Conditions: 3000 cells per well, DMEM medium with 10% human plasma, overnight compound treatment, AMP 200 uM.
T1 construct: endogenous in cells; host or cells: MDA-MB-231-GFP cells
T1 sequence (P21589 27-549): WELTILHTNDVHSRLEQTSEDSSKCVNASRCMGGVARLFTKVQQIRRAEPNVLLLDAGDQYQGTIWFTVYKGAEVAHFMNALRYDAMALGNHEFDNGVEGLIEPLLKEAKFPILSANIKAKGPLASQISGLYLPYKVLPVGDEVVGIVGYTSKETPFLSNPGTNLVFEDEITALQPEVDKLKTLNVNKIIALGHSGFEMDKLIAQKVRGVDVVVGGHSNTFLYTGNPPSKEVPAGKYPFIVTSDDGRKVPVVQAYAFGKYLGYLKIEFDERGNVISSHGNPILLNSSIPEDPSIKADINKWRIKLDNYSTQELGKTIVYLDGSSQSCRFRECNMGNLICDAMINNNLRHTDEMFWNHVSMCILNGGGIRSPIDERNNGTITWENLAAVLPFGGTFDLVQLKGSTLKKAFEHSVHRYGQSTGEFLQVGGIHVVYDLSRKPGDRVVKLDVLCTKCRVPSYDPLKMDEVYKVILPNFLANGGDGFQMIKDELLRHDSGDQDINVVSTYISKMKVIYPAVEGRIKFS
Experimental: MDA-MB-231 Cell Based CD73 Activity Assay (DMEM) MDA-MB-231-GFP cells were seeded in 384-well plates (Greiner 781946) at a density of 3000 cells per well in 50 μL of DMEM medium with 10% HP (human plasma). Cells were plated into assay plate with compounds pre-spotted, for an overnight compound treatment. 50 uL of 400 uM AMP (final concentration will be 200 uM) was added using Bio-tek dispenser. Plates were incubated for 100 mins. […] The samples were analyzed using Rapid fire.

SMILES	EC50 [nM]
CN(C)C(=O)c1cccc([C@H]2C[C@@H]2c2cc(-c3c[nH]c(=O)[nH]c3=O)nn3ccnc23)c1 (racemic) [Example 287, 3-((2S,2S)-2-(6-(2,4-dioxo-1,2,3,4-tetrahydropyrimidin-5-yl)imidazo[1,2-b]pyridazin-8-yl)cyclopropyl)-N,N-dimethylbenzamide]	12.5
O=C(c1ccc([C@H]2C[C@@H]2c2cc(-c3c[nH]c(=O)[nH]c3=O)nn3ccnc23)cc1)N1CC(C(F)(F)F)C1 (racemic) [Example 291, 5-(8-((1S,2S)-2-(4-(3-(trifluoromethyl)azetidine-1-carbonyl)phenyl)cyclopropyl)imidazo[1,2-b]pyridazin-6-yl)pyrimidine-2,4(1H,3H)-dione]	18.6
O=C(c1cccc([C@H]2C[C@@H]2c2cc(-c3c[nH]c(=O)[nH]c3=O)nn3ccnc23)c1)N1CCC1 (racemic) [Example 294, 5-(8-((2S,2S)-2-(3-(azetidine-1-carbonyl)phenyl)cyclopropyl)imidazo[1,2-b]pyridazin-6-yl)pyrimidine-2,4(1H,3H)-dione]	1.32
CC1CN(C(=O)c2cccc([C@H]3C[C@@H]3c3cc(-c4c[nH]c(=O)[nH]c4=O)nn4ccnc34)c2)C1 (racemic) [Example 295, 5-(8-((1S,2S)-2-(3-(3-methylazetidine-1-carbonyl)phenyl)cyclopropyl)imidazo[1,2-b]pyridazin-6-yl)pyrimidine-2,4(1H,3H)-dione]	1.97
O=C(c1cccc([C@H]2C[C@@H]2c2cc(-c3c[nH]c(=O)[nH]c3=O)nn3ccnc23)c1)N1CC(C(F)(F)F)C1 (racemic) [Example 296, 5-(8-((2S,2S)-2-(3-(3-(trifluoromethyl)azetidine-1-carbonyl)phenyl)cyclopropyl)imidazo[1,2-b]pyridazin-6-yl)pyrimidine-2,4(1H,3H)-dione]	4.38
O=C(c1cccc([C@H]2C[C@@H]2c2cc(-c3c[nH]c(=O)[nH]c3=O)nn3ccnc23)c1)N1CC(F)(F)C1 (racemic) [Example 297, 5-(8-((2S,2S)-2-(3-(3,3-difluoroazetidine-1-carbonyl)phenyl)cyclopropyl)imidazo[1,2-b]pyridazin-6-yl)pyrimidine-2,4(1H,3H)-dione]	1.31
O=C(c1ccc([C@H]2C[C@@H]2c2cc(-c3c[nH]c(=O)[nH]c3=O)nn3ccnc23)cc1)N1C[C@@H](F)[C@H](F)C1 (racemic) [Example 299]	24.5
O=C(c1cccc([C@H]2C[C@@H]2c2cc(-c3c[nH]c(=O)[nH]c3=O)nn3ccnc23)c1)N1C[C@@H](F)[C@H](F)C1 (racemic) [Example 300, 5-(8-((2S,2S)-2-(3-((3R,4R)-3,4-difluoropyrrolidine-1-carbonyl)phenyl)cyclopropyl)imidazo[1,2-b]pyridazin-6-yl)pyrimidine-2,4(1H,3H)-dione]	1.34
O=C(c1cccc([C@H]2C[C@@H]2c2cc(-c3c[nH]c(=O)[nH]c3=O)nn3ccnc23)c1)N1C[C@@H](F)[C@@H](F)C1 (racemic) [Example 302, 5-(8-((2S,2S)-2-(3-((3S,4R)-3,4-difluoropyrrolidine-1-carbonyl)phenyl)cyclopropyl)imidazo[1,2-b]pyridazin-6-yl)pyrimidine-2,4(1H,3H)-dione]	6.99
O=C(c1cccc([C@H]2C[C@@H]2c2cc(-c3c[nH]c(=O)[nH]c3=O)nn3ccnc23)c1)N1CC(F)(F)C(F)(F)C1 (racemic) [Example 304, 5-(8-((2S,2S)-2-(3-(3,3,4,4-tetrafluoropyrrolidine-1-carbonyl)phenyl)cyclopropyl)imidazo[1,2-b]pyridazin-6-yl)pyrimidine-2,4(1H,3H)-dione]	3.04
O=C(c1cccc([C@H]2C[C@@H]2c2cc(-c3c[nH]c(=O)[nH]c3=O)nn3ccnc23)c1)N1CCC(F)(F)C1 (racemic) [Example 306, 5-(8-((2S,2S)-2-(3-(3,3-difluoropyrrolidine-1-carbonyl)phenyl)cyclopropyl)imidazo[1,2-b]pyridazin-6-yl)pyrimidine-2,4(1H,3H)-dione]	1.41
O=c1[nH]cc(-c2cc([C@H]3C[C@@H]3c3ccccc3OC(F)(F)F)c3nccn3n2)c(=O)[nH]1 (racemic) [Example 309, 5-(8-((1S,2S)-2-(2-(trifluoromethoxy)phenyl)cyclopropyl)imidazo[1,2-b]pyridazin-6-yl)pyrimidine-2,4(1H,3H)-dione]	208
N#Cc1cncc([C@H]2C[C@@H]2c2cc(-c3c[nH]c(=O)[nH]c3=O)nn3ccnc23)c1 (racemic) [Example 311, 5-((2S,2S)-2-(6-(2,4-dioxo-1,2,3,4-tetrahydropyrimidin-5-yl)imidazo[1,2-b]pyridazin-8-yl)cyclopropyl)nicotinonitrile]	11.6

The next lines start with the values.

EC50 [nM]	SMILES
35.7	CN(C)C(=O)c1ccc([C@H]2C[C@@H]2c2cc(-c3c[nH]c(=O)[nH]c3=O)nn3ccnc23)cc1 (racemic) [Example 288, 4-((2S,2S)-2-(6-(2,4-dioxo-1,2,3,4-tetrahydropyrimidin-5-yl)imidazo[1,2-b]pyridazin-8-yl)cyclopropyl)-N,N-dimethylbenzamide]
7.24	O=C(c1ccc([C@H]2C[C@@H]2c2cc(-c3c[nH]c(=O)[nH]c3=O)nn3ccnc23)cc1)N1CCC1 (racemic) [Example 289, 5-(8-((2S,2S)-2-(4-(azetidine-1-carbonyl)phenyl)cyclopropyl)imidazo[1,2-b]pyridazin-6-yl)pyrimidine-2,4(1H,3H)-dione]
9.64	CC1CN(C(=O)c2ccc([C@H]3C[C@@H]3c3cc(-c4c[nH]c(=O)[nH]c4=O)nn4ccnc34)cc2)C1 (racemic) [Example 290, 5-(8-((2S,2S)-2-(4-(3-methylazetidine-1-carbonyl)phenyl)cyclopropyl)imidazo[1,2-b]pyridazin-6-yl)pyrimidine-2,4(1H,3H)-dione]
5.72	O=C(c1ccc([C@H]2C[C@@H]2c2cc(-c3c[nH]c(=O)[nH]c3=O)nn3ccnc23)cc1)N1CC(F)(F)C1 (racemic) [Example 292, 5-(8-((1S,2S)-2-(4-(3,3-difluoroazetidine-1-carbonyl)phenyl)cyclopropyl)imidazo[1,2-b]pyridazin-6-yl)pyrimidine-2,4(1H,3H)-dione]
8.8	CC1(C)CN(C(=O)c2ccc([C@H]3C[C@@H]3c3cc(-c4c[nH]c(=O)[nH]c4=O)nn4ccnc34)cc2)C1 (racemic) [Example 293, 5-(8-((2S,2S)-2-(4-(3,3-dimethylazetidine-1-carbonyl)phenyl)cyclopropyl)imidazo[1,2-b]pyridazin-6-yl)pyrimidine-2,4(1H,3H)-dione]
2.81	CC1(C)CN(C(=O)c2cccc([C@H]3C[C@@H]3c3cc(-c4c[nH]c(=O)[nH]c4=O)nn4ccnc34)c2)C1 (racemic) [Example 298, 5-(8-((2S,2S)-2-(3-(3,3-dimethylazetidine-1-carbonyl)phenyl)cyclopropyl)imidazo[1,2-b]pyridazin-6-yl)pyrimidine-2,4(1H,3H)-dione]
19.2	O=C(c1ccc([C@H]2C[C@@H]2c2cc(-c3c[nH]c(=O)[nH]c3=O)nn3ccnc23)cc1)N1C[C@@H](F)[C@@H](F)C1 (racemic) [Example 301, 5-(8-((2S,2S)-2-(4-((3S,4R)-3,4-difluoropyrrolidine-1-carbonyl)phenyl)cyclopropyl)imidazo[1,2-b]pyridazin-6-yl)pyrimidine-2,4(1H,3H)-dione]
27.7	O=C(c1ccc([C@H]2C[C@@H]2c2cc(-c3c[nH]c(=O)[nH]c3=O)nn3ccnc23)cc1)N1CC(F)(F)C(F)(F)C1 (racemic) [Example 303, 5-(8-((1S,2S)-2-(4-(3,3,4,4-tetrafluoropyrrolidine-1-carbonyl)phenyl)cyclopropyl)imidazo[1,2-b]pyridazin-6-yl)pyrimidine-2,4(1H,3H)-dione]
21.2	O=C(c1ccc([C@H]2C[C@@H]2c2cc(-c3c[nH]c(=O)[nH]c3=O)nn3ccnc23)cc1)N1CCC(F)(F)C1 (racemic) [Example 305, 5-(8-((2S,2S)-2-(4-(3,3-difluoropyrrolidine-1-carbonyl)phenyl)cyclopropyl)imidazo[1,2-b]pyridazin-6-yl)pyrimidine-2,4(1H,3H)-dione]
96.1	CC1(C)CCN(C(=O)c2ccc([C@H]3C[C@@H]3c3cc(-c4c[nH]c(=O)[nH]c4=O)nn4ccnc34)cc2)C1 (racemic) [Example 307, 5-(8-((2S,2S)-2-(4-(3,3-dimethylpyrrolidine-1-carbonyl)phenyl)cyclopropyl)imidazo[1,2-b]pyridazin-6-yl)pyrimidine-2,4(1H,3H)-dione]
6.47	CC1(C)CCN(C(=O)c2cccc([C@H]3C[C@@H]3c3cc(-c4c[nH]c(=O)[nH]c4=O)nn4ccnc34)c2)C1 (racemic) [Example 308, 5-(8-((1S,2S)-2-(3-(3,3-dimethylpyrrolidine-1-carbonyl)phenyl)cyclopropyl)imidazo[1,2-b]pyridazin-6-yl)pyrimidine-2,4(1H,3H)-dione]

From patent US12110294B2, “CD73 compounds” (Gilead Sciences, Inc., priority 2020, dated 2024)
